As usually defined, the IC50 is the concentration that inhibits the measured activity by half. A lower IC50 goes with greater potency. By GI50 is commonly meant the concentration at which growth is held to half of that of the control. A lower GI50 goes with more potent growth inhibition.

Experimental findings from ChEMBL document CHEMBL1141233, “3-(5-Chloro-2,4-dihydroxyphenyl)-pyrazole-4-carboxamides as inhibitors of the Hsp90 molecular chaperone” (Bioorg Med Chem Lett, 2005) are described below.

In one assay the target is Heat shock protein HSP90 (Homo sapiens, UniProt P07900+P08238). Kind of assay: Binding affinity to Hsp90 by fluorescent polarization assay. It is filed as protein assay.
The next assay relates to HCT-116. Nature of the assay: Inhibition of cell proliferation in HCT116 human colon cancer cell line. It is filed as functional.

For the compound `COc1cccc(NC(=O)c2c[nH]nc2-c2cc(Cl)c(O)cc2O)c1`, the IC50 on Heat shock protein HSP90 worked out at 11.7 µM. Also, the concentration for 50% growth inhibition (GI50) with HCT-116 was more than 80 µM.

At Heat shock protein HSP90, `O=C(NCc1cccc(C(F)(F)F)c1)c1cn[nH]c1-c1cc(Cl)c(O)cc1O` came in with an IC50 of 5.4 µM. For the same compound, in the assay on HCT-116, growth was halved (GI50) at 45 µM.

The compound `COc1ccc(N(C)C(=O)c2c[nH]nc2-c2cc(Cl)c(O)cc2O)cc1` came in with a 50% inhibitory concentration (IC50) at Heat shock protein HSP90 of more than 50 µM.

On to `COc1ccc(NC(=O)c2c[nH]nc2-c2cc(Cl)c(O)cc2O)cc1`, for which, at Heat shock protein HSP90, the IC50 stood at 6 µM. Further, the GI50 with HCT-116 was more than 80 µM.

`COc1ccc(CNC(=O)c2c[nH]nc2-c2cc(Cl)c(O)cc2O)cc1`: at Heat shock protein HSP90, the concentration for half-maximal inhibition (IC50) turned out to be 6 µM. This compound also registered a GI50 in the assay with HCT-116 of 60.7 µM.

The compound `O=C(NCc1ccco1)c1cn[nH]c1-c1cc(Cl)c(O)cc1O` registered an IC50 at Heat shock protein HSP90 of 35.6 µM.

Regarding `O=C(NCc1ccc(F)cc1)c1cn[nH]c1-c1cc(Cl)c(O)cc1O`, the IC50 on Heat shock protein HSP90 came to 5.35 µM. In addition, growth in the assay on HCT-116 was halved (GI50) at 56.2 µM.

As to `COc1cccc(CNC(=O)c2c[nH]nc2-c2cc(Cl)c(O)cc2O)c1`, the IC50 on Heat shock protein HSP90 was determined as 10.7 µM. Also, the GI50 in the assay with HCT-116 was more than 80 µM.

For the compound `O=C(Nc1ccc(O)cc1)c1c[nH]nc1-c1cc(Cl)c(O)cc1O`, at Heat shock protein HSP90, the IC50 was 14.7 µM. This compound had a 50% growth inhibitory concentration (GI50) in the assay on HCT-116 of more than 80 µM.

Compound `CC(=O)c1ccc(NC(=O)c2cn[nH]c2-c2cc(Cl)c(O)cc2O)cc1` showed a GI50 with HCT-116 of 11.6 µM.

In the assay on HCT-116, `NS(=O)(=O)c1ccc(CNC(=O)c2cn[nH]c2-c2cc(Cl)c(O)cc2O)cc1` yielded a 50% growth inhibitory concentration (GI50) of more than 80 µM.

The compound `CC(=O)Nc1ccc(NC(=O)c2c[nH]nc2-c2cc(Cl)c(O)cc2O)cc1` came in with a 50% inhibitory concentration (IC50) at Heat shock protein HSP90 of 31.5 µM. In the assay with HCT-116, the GI50 is 59.7 µM.

Regarding `O=C(Nc1ccccc1)c1cn[nH]c1-c1cc(Cl)c(O)cc1O`, the IC50 at Heat shock protein HSP90 was found to be 7.1 µM.

At Heat shock protein HSP90, `O=C(NCc1ccccc1)c1cn[nH]c1-c1cc(Cl)c(O)cc1O` came in with an IC50 of 12.8 µM. In addition, in the assay with HCT-116, the GI50 was more than 80 µM.

The compound `O=C(Nc1ccccn1)c1cn[nH]c1-c1cc(Cl)c(O)cc1O` returned an IC50 on Heat shock protein HSP90 of more than 50 µM.

On Heat shock protein HSP90, `O=C(Nc1ccc(Cl)cc1)c1cn[nH]c1-c1cc(Cl)c(O)cc1O` gave an IC50 of 6.9 µM. The 50% growth inhibitory concentration (GI50) in the assay with HCT-116 was more than 80 µM.
